# Where a name gives a salt, the structure may show the parent alone. Read-outs that look alike come from different tables or passages of the source.
# Tests used:
# pKa of the compound = type: physicochemical; conditions: basic group
# [1] = target: T1, recombinant protein KIF18A (kinesin domain: aa 1-467) (Homo sapiens, UniProt Q8NI77); assay: Inhibition of KIF18A enzymatic activity (ADP-Glo kinase assay kit); type: biochemical; conditions: KIF18A 80 nM, ATP 80 µM, 3 h at room temperature, luminescence
# T1 construct: KIF18A (kinesin domain: aa 1-467); made in house; host or cells: Bac-to-Bac baculovirus expression system (Invitrogen)
# T1 sequence (Q8NI77 1-467): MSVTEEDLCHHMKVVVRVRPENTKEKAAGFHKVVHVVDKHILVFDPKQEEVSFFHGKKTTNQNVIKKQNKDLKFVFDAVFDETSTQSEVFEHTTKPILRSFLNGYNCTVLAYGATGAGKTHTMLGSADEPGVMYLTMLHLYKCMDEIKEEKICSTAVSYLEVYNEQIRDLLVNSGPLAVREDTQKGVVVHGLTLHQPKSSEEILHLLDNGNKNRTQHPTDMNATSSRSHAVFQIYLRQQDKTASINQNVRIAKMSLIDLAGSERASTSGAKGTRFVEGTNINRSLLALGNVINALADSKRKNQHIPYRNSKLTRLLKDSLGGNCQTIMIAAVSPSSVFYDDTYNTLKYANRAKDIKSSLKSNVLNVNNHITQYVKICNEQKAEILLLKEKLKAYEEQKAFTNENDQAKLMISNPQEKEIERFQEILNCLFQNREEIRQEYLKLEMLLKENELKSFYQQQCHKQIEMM
# Text: The recombinant protein KIF18A (kinesin domain: aa 1-467) used in this assay was expressed by the Bac-to-Bac baculovirus expression system from Invitrogen, and the resulting protein was purified for use in this assay (Seki, M. et al. 2003 Nucleic Acids Res.). Quantitative detection of KIF18A enzymatic activity was completed using an ADP-Glo™ kinase assay kit (Promega Inc). Related procedures strictly followed the product instructions, which are briefly described as follows: The reaction system consisted of a test compound, the recombinant protein KIF18A (aa 1-467), ATP (Promega Inc), and an assay buffer. The test compound was prepared into a 0.5 mM stock solution using DMSO (Sigma Inc) and then serially diluted in DMSO. The assay buffer consisted of an aqueous solution of 15 mM Tris, 10 mM MgCl2 (Sigma Inc), 0.01% Pluronic F-68 (Life Technologies Inc), 1 µM paclitaxel (Cytoskeleton Inc), 30 µg/mL porcine tubulin (Cytoskeleton Inc), and 2% DMSO. […] After all reactions were completed, the luminescence values of the wells were read on a microplate reader (Molecular Device_SpectraMax Id5), and the inhibition ratios were calculated. […] Then, based on the inhibition rates at different compound concentrations, the IC50 value of the test compound was calculated using the GraphPad Prism 8 software.
# NIH:OVCAR-3 cells = assay: Inhibition of OVCAR3 tumor cell proliferation (CellTiter-Glo); type: cell-based; conditions: Homo sapiens, OVCAR-3, 72 h, 3 days drug treatment
# Procedure: NIH:OVCAR-3 cells (ATCC, Cat No. HTB-161, purchased from Co-Bier) were seeded into a T75 culture flask and cultured in an RPMI 1640 medium containing 20% FBS for 3 days in preparation for subsequent culturing and seeding into a 96-well plate for the cell proliferation assay. The OVCAR3 cells were seeded at a density of 3000 cells/100 µL/well into the 96-well cell plate, and then the plate was incubated in an incubator (37 °C, 5% CO2) for 18 h. On the second day, drug treatment was started. Serially diluted test compound solutions (each drug starting at a concentration of 10 µM, diluted in DMSO, with a dilution ratio of 1:3, and nine gradient points for each drug) or DMSO (negative control) was added to the medium in the plate at 100 µL/well, and a blank group was set up with only medium, but no seeded cell strains. After the drug addition, the plate was incubated in the incubator for another 3 days (37 °C, 5% CO2). On the fourth day, plate detection was performed. To each well, 100 µL of CellTiter-Glo reagent (Promega G9243) was added. The plate was shaken for 5 min and then left to stand at room temperature for 5 min. The chemical luminescence signal value of each well was determined using a microplate reader (PerkinElmer EnVision®2104). […] Then, the IC50 value of the test compound was calculated using the GraphPad Prism 8 software.
# [2] = Solubility at room temperature in water, SGF and FaSSIF (HPLC concentration, pH of filtrate, XRPD of residual solid); conditions: for pH: pH of filtrate, listed as Crystal form B of sulfate
# [3] = Dynamic solubility at 37 °C in H2O, SGF, FaSSIF and FeSSIF (HPLC concentration, pH of filtrate, XRPD of residual solid); type: physicochemical; conditions: for solubility at 1 h / solubility at 2 h / solubility at 4 h / solubility at 24 h: feeding concentration 10 mg/mL, read-out: S: solubility; for FC: crystal form change: XRPD of residual solid; for FC: crystal form change / pH: listed as Crystal form B of sulfate; for pH: pH of filtrate
# Procedure: 0.82 mL of glacial acetic acid and 1.18 g of NaCl were added to a 100 mL volumetric flask and completely dissolved by addition of purified water.
# The solubility of each sample in H2O, SGF, FaSSIF, and FeSSIF was determined at different time points (1 h, 2 h, 4 h, and 24 h). […] 137-156. […] Table C-2. Summary of dynamic solubility test results at 37 °C
# [4] = Hygroscopicity by dynamic vapor sorption (DVS); type: physicochemical; conditions: 25 °C/80% RH
# Procedure: Dynamic vapor sorption (DVS) curves were acquired on a DVS IntrInsic from Surface Measurement Systems (SMS). The relative humidity at 25 °C was corrected with the deliquescence points of LiCl, Mg(NO3)2, and KCl. Table A-5. DVS test parameters
# The percentage changes in mass of the samples when the humidity changed (0% RH to 95% RH) at a constant temperature of 25 °C were collected. 157-166.
# [5] = Solid state stability (XRPD and HPLC purity); type: physicochemical; conditions: listed as Crystal form B of sulfate
# Text: 167-171. […] Table C-3. Summary of solid state stability evaluation
smiles,measurement,setting,value
"Cc1cc(-c2cnn(-c3ccc(NS(=O)(=O)CCO)cc3N3CCC4(CC3)CC4)c2)nc(N2CCC(F)(F)CC2)n1 [compound of formula I, N-(4-(4-(2-(4,4-difluoropiperidin-1-yl)-6-methylpyrimidin-4-yl)-1H-pyrazol-1-yl)-3-(6-azaspiro[2.5]octan-6-yl)phenyl)-2-hydroxyethane-1-sulfonamide]",pKa,pKa of the compound,4.5
same,IC50,[1],11 nM
same,IC50,NIH:OVCAR-3 cells,96 nM
Cc1cc(-c2cnn(-c3ccc(NS(=O)(=O)CCO)cc3N3CCC4(CC3)CC4)c2)nc(N2CCC(F)(F)CC2)n1 [crystal form B of the sulfate],S: solubility,"[2]; H2O, 2 h, feeding concentration 1 mg/mL",<LOQ
same,pH,"[2]; FaSSIF, 2 h",6.3
same,pH,"[2]; FaSSIF, 24 h",6.2
same,pH,"[2]; H2O, 2 h",2.7
same,pH,"[2]; H2O, 24 h",2.5
same,pH,"[2]; SGF, 2 h",1.8
same,pH,"[2]; SGF, 24 h",1.8
same,solubility at 1 h,"[3]; FaSSIF, 1 h",53.9 µg/mL
same,solubility at 2 h,"[3]; FaSSIF, 2 h",36.4 µg/mL
same,solubility at 4 h,"[3]; FaSSIF, 4 h",28.1 µg/mL
same,solubility at 24 h,"[3]; FaSSIF, 24 h",13.6 µg/mL
same,solubility at 1 h,"[3]; FeSSIF, 1 h",194 µg/mL
same,solubility at 2 h,"[3]; FeSSIF, 2 h",186 µg/mL
same,solubility at 4 h,"[3]; FeSSIF, 4 h",166 µg/mL
same,solubility at 24 h,"[3]; FeSSIF, 24 h",79 µg/mL
same,solubility at 1 h,"[3]; SGF, 1 h",147 µg/mL
same,solubility at 2 h,"[3]; SGF, 2 h",82.4 µg/mL
same,solubility at 4 h,"[3]; SGF, 4 h",18.1 µg/mL
same,solubility at 24 h,"[3]; SGF, 24 h",18.5 µg/mL
same,FC: crystal form change,"[3]; FaSSIF, 1 h",Yes
same,FC: crystal form change,"[3]; FaSSIF, 2 h",Yes
same,FC: crystal form change,"[3]; FaSSIF, 4 h",Yes
same,FC: crystal form change,"[3]; FaSSIF, 24 h",Yes
same,FC: crystal form change,"[3]; FeSSIF, 1 h",Yes
same,FC: crystal form change,"[3]; FeSSIF, 2 h",Yes
same,FC: crystal form change,"[3]; FeSSIF, 4 h",Yes
same,FC: crystal form change,"[3]; FeSSIF, 24 h",Yes
same,FC: crystal form change,"[3]; H2O, 1 h",Yes
same,FC: crystal form change,"[3]; H2O, 2 h",Yes
same,FC: crystal form change,"[3]; H2O, 4 h",Yes
same,FC: crystal form change,"[3]; H2O, 24 h",Yes
same,FC: crystal form change,"[3]; SGF, 1 h",Yes
same,FC: crystal form change,"[3]; SGF, 2 h",Yes
same,FC: crystal form change,"[3]; SGF, 4 h",Yes
same,FC: crystal form change,"[3]; SGF, 24 h",Yes
same,pH,"[3]; FaSSIF, 1 h",2.06
same,pH,"[3]; FaSSIF, 2 h",2.13
same,pH,"[3]; FaSSIF, 4 h",2.07
same,pH,"[3]; FaSSIF, 24 h",2.08
same,pH,"[3]; FeSSIF, 1 h",4.50
same,pH,"[3]; FeSSIF, 2 h",4.49
same,pH,"[3]; FeSSIF, 4 h",4.48
same,pH,"[3]; FeSSIF, 24 h",4.48
same,pH,"[3]; H2O, 1 h",1.50
same,pH,"[3]; H2O, 24 h",1.56
same,solubility at 1 h,"[3]; water, H2O, 1 h",38.2 µg/mL
same,solubility at 2 h,"[3]; water, H2O, 2 h",18 µg/mL
same,solubility at 4 h,"[3]; water, H2O, 4 h",11.1 µg/mL
same,solubility at 24 h,"[3]; water, H2O, 24 h",3 µg/mL
same,solubility at 2 h,physchem; fassif,61.6 µg/mL
same,solubility at 24 h,physchem; fassif,33.8 µg/mL
same,solubility at 2 h,physchem; sgf,54.5 µg/mL
same,solubility at 24 h,physchem; sgf,25 µg/mL
same,solubility at 24 h,physchem; water,0.1 µg/mL
same,vapor sorption values,[4],0.445%
same,HPLC results Purity (area%),"[5]; 25 °C/60% RH/open, 1 week",97.97 area%
same,HPLC results Purity (area%),"[5]; 40 °C/75% RH/open, 1 week",97.98 area%
same,HPLC results Purity (area%),"[5]; 80 °C/sealed, 1 day",97.98 area%
same,HPLC results Relative to starting (%),"[5]; 80 °C/sealed, 1 day",100.0%
same,HPLC results Purity (area%),[5]; Starting,98.00 area%
same,Crystal form,"[5]; XRPD after 25 °C/60% RH/open, 1 week",Crystal form B of sulfate
same,Crystal form,"[5]; XRPD after 40 °C/75% RH/open, 1 week",Crystal form B of sulfate
same,Crystal form,"[5]; XRPD after 80 °C/sealed, 1 day",Crystal form B of sulfate
